{"source": "patent US7632819B1", "about": "“Methods and compositions for inhibiting PKC delta cleavage for treatment and prevention of neurodegeneration and apoptosis” (Iowa State University Research Foundation, Inc., priority 2004, dated 2009)", "system": "N27 cells", "settings": "for potency in attenuating apoptosis compared with caspase-3 inhibitor DEVD-FMK, in words: 6-OHDA model", "protocol": "[…] Z is the abbreviation for N-benzyloxycarbonyl. Untreated cells were used as control samples. After the treatment, the cells were collected by trypsinization (Trypsin 0.25%, 1 mM EDTA), centrifuged at 200×g for 5 min, washed with PBS twice, then lysed. The lysate was used for DNA fragmentation assay.\nDNA fragmentation assays were performed using a recently developed Cell Death Detection ELISA Plus Assay Kit. This is a fast, highly sensitive and reliable assay for the detection of early changes in apoptotic cell death. After treatments, 20 μl of cell lysate was processed according to the manufacturer's protocol. The assay solution consisted of a mixture of anti-histone biotin and anti-DNA-HRP directed against various histones and antibodies to both single stranded DNA and double stranded DNA, the major constituents of nucleosomes. After 2 hr incubation, unbound components were removed by washing with the incubation buffer supplied with the kit. Quantification of the nucleosomes retained by anti-DNA-HRP in the immunocomplex was determined spectrophotometrically with ABTS (2,2′-azino-di[3-ethoxybenzyl thiazoline sulfonate) as a HRP substrate (supplied with the kit). Measurements were made at 405 nm against an ABTS solution as a blank (reference wave length 490 nm).\nChemicals. Protease cocktail, ATP, protein-A-sepharose, protein-G-sepharose and anti-â-actin antibody were obtained from Sigma-Aldrich (St. Louis, Mo.); mouse tyrosine hydroxylase antibody was purchased from Chemicon (Temecula, Calif.); the rabbit polyclonal antibody for tyrosine hydroxylase was obtained from Calbiochem Bioscience, Inc. (King of Prussia, Pa.); rabbit PKCδ antibody was purchased from Santa Cruz Biotechnology, Inc. (Santa Cruz, Calif.); anti-rabbit and anti-mouse secondary antibodies and the ECL chemiluminescence kit were purchased from Amersham Pharmacia Biotech. (Piscataway, N.J.). Alexa 488 conjugated antirabbit/mouse, Cy3 conjugated anti-rabbit/mouse antibody and Hoechst 33342 were purchased from Molecular Probes, Inc. (Eugene, Oreg.). [ã-32P]ATP was purchased from Perkin Elmer Life Science Products (Boston, Mass.). The Bradford protein assay kit was purchased from Bio-Rad Laboratories (Hercules, Calif.). RPMI, fetal bovine serum, -glutamine, penicillin, and streptomycin were purchased from Invitrogen (Gaithersburg, Md.). Quantity One 4.2.0 software was purchased from Bio-Rad. Design and synthesis of z-DIPD-fmk (SEQ ID NO:5). To develop a cell permeable peptide inhibitor to specifically block PKCδ cleavage, we designed the tetrapeptide Asp-Ile-Pro-Asp (DIPD) (SEQ ID NO:5) corresponding to position 324-327 in rat PKCδ cDNA representing the caspase-3 cleavage site. Since this peptide is directed against the caspase-3 cleavage site of PKCδ, it should prevent the proteolytic cleavage and activation of PKCδ mediated by caspase-3. The custom synthesis of the tetrapeptide Z-Asp(OMe)-Ile-Pro-Asp(OMe)-FMK (SEQ ID NO:5) was performed at MP Biomedicals (Irvine, Calif.), a quality company that specializes in developing cell permeable peptide inhibitors directed against apoptosis cell signaling molecules. Briefly, the synthesis was performed with the reaction of Boc-D(OMe)-OH with MBFM (Magnesium benzyl fluoromalonate) to produce Beta-Keto fluoroester, followed by hydrogenation with Pd/c to produce Boc-D(OMe)FK, which was converted into Tfa salt using trifluoroacetic acid. Coupling of Tfa salt with Z-D(OMe)—I—P—OH in DMF with HOBT, HBTU DIEA and workup produced a crude product which was purified by column chromatography over silica gel. Elution with EtOAC:MeOH 95:5 gave pure fractions which were mixed and dried. Crystallization with EtOAC/Hexane, filtration and drying produced the pure product. Animals.", "note": "Like-named read-outs stand apart in the source and are kept apart here. Where a SMILES comes first, the peptide text is derived from it. The star is where a group is joined. Cbz = O=C(OCc1ccccc1)*; CH2F = FC*"}
{"smiles": "CC[C@H](C)[C@H](NC(=O)[C@H](CC(=O)OC)NC(=O)OCc1ccccc1)C(=O)N1CCC[C@H]1C(=O)N[C@@H](CC(=O)OC)C(=O)CF", "note": "[z-DIPD-fmk, Z-Asp(OMe)-Ile-Pro-Asp(OMe)-FMK] (Cbz-D(OMe)IPD(OMe)-CH2F)", "values": [{"measurement": "effect on 6-OHDA-induced DNA fragmentation / apoptotic cell death", "setting": "100 μM 6-OHDA 24 hr, concentration not stated or dose-response 1-50 μM, listed as N-benzyloxycarbonyl-Asp(OMe)-Ile-Pro-Asp(OMe)-FMK", "result": "effectively blocked"}, {"measurement": "effect on 6-OHDA-induced DNA fragmentation", "setting": "100 μM 6-OHDA 24 hr, inhibitor 50 μM", "result": "completely blocked"}, {"measurement": "effect on MPP+-induced DNA fragmentation", "setting": "300 μM MPP+ 36 hr, inhibitor 50 μM", "result": "significantly attenuated"}, {"measurement": "potency in attenuating apoptosis compared with caspase-3 inhibitor DEVD-FMK, in words", "result": "much more potent"}, {"measurement": "potency in attenuating apoptosis compared with caspase-3 inhibitor DEVD-FMK, in words", "setting": "listed as N-benzyloxycarbonyl-Asp(OMe)-Ile-Pro-Asp(OMe)-FMK", "result": "more potent"}, {"measurement": "effect on MPP+-induced DNA fragmentation", "setting": "MPP+, inhibitor concentration not stated", "result": "dose-dependently attenuated"}, {"measurement": "effect on MPP+-induced DNA fragmentation", "setting": "MPP+, inhibitor concentration not stated, listed as N-benzyloxycarbonyl-Asp(OMe)-Ile-Pro-Asp(OMe)-FMK", "result": "inhibited"}, {"measurement": "potency relative to z-DEVD-fmk at protecting against 6-OHDA-induced apoptotic cell death", "setting": "from IC50 values", "result": "at least 3 times"}, {"measurement": "effect on 6-OHDA-induced DNA fragmentation", "setting": "inhibitor as low as 3 μM", "result": "almost completely inhibits"}, {"measurement": "IC50", "setting": "read-out: IC50, 6-OHDA-induced DNA fragmentation (apoptotic cell death), 100 μM 6-OHDA 24 hr, inhibitor 1-50 μM", "result": 6, "unit": "µM"}]}
